Laboratory results reported in US20110098180A1, “Herbicide-Resistant Plants, And Polynucleotides And Methods For Providing Same” (United States Department of Agriculture, priority 2002, published 2011).

Target: hydrilla PDS position 304 Arginine, His-tagged (Hydrilla verticillata, UniProt Q66PY0)
Test: Cross-resistance testing, His-tagged column-purified PDS (Table 2A)
Format: biochemical
Details: for R/S: Arginine at 304 (reference), Table 2A; for IC50: Arginine at 304, His-tagged, column-purified PDS, read-out: I50
Description: The alternative approach utilized His-tagging and column purification of the mutant PDS protins.
In order to express pds in bacteria, deletion clones were made for each of the three potential start codons with and without ATG. […] The forward primers used were ORF (5′ […] 3′), ORF-ATG (5′ […] 3′), 3_ORF (5′[…] 3′) and 3_ORF-ATG (5′ […] 3′). The resulting plasmids were named pORF, pORF-ATG (minus ATG codon), p3ORF and p3ORF-ATG. The pds-containing EcoRI-fragments of these plasmids were subcloned into the EcoRI site of pRSETb vector (Invitrogen) for Histidine tagging and bacterial expression. The resulting constructs were pHy4SET, pHy4SET-ATG (minus ATG), p3ORFSET and p3ORFSET-ATG.
Primers used to replace Arg by His were Hyd-His-For (5′[…] 3′) and Hyd-His-Rev (5′ […] 3′); to replace Arg by Thr we used primers Hyd-Thr-For (5′[…] 3′) and Hyd-Thr-Rev (5′[…] 3′); to replace Arg by Ser we used Hyd-Ser-For (5′[…] 3′) and Hyd-Ser-Rev (5′[…] 3′); and Arg was replaced by Cys using Hyd-Cys-For (5′[…] 3′) and Hyd-Cys-Rev (5′[…] 3′). Resulting plasmids were named: p3ORFHisSet-ATG, p3ORFThrSet-ATG, p3ORFSerSet-ATG and p3ORFCysSet-ATG.
All pRSET derived constructs were transformed into BL21(DE3)pLysS cells (Invitrogen), induced with IPTG for protein expression, and the His tag overproduced proteins analyzed by Western blot using Anti-HisG antibody (Invitrogen, cat. #R940-25).
BL21(DE3)pLysS cells were grown overnight in 500 ml Luria Broth (LB) supplemented with carbenicillin (100 mg/l) and cloramphenicol (60 mg/l) at 37° C., and induced with 0.3 mM isopropylthio-β-D-galactoside (IPTG) for 3 hrs. Cells were lysed using a French press (Spectronics Instrument) at 20,000 psi and overexpressed PDS was purified on a nickel activated Hitrap Chelating HP column according to the manufacturers instructions (Amersham Bioscience).
Generally, PDS protein fractions prepared as described above (Non-His-tagged and His-tagged) were mixed with a soluble fraction from phytoene-producing E. coli cells. […] This E. coli strain was separately cultured and lysed, and its soluble components collected (“the EB extract”) in a fashion similar to that described above for the PDS-producing cells.
His-tagged, purified proteins prepared as described above were transferred to the assay buffer on a PD10 column (Amersham Bioscience) and the concentration was adjusted to 100 μg/mL. Crude extracts containing phytoene were produced in E. coli JM101/pACCRT-EB containing geranylgeranyl pyrophosphate synthase and phytoene synthase enzymes from Erwinia uredova as described above. The reaction assays consisted of 50 μg PDS in 500 μl of assay buffer (200 mM Sodium Phosphate, pH 7.2) and 500 μl of pACCRT-EB extract. The herbicide (10 μL in MeOH) was added to the 500 μl of PDS extract and incubated on ice for 15 minutes prior to mixing it with the EB extract. […] Dose-response curves were fitted to the four-parameter logistic function. […] I^50 values were calculated from the regressions.

Sequence of hydrilla PDS position 304 Arginine, His-tagged (Q66PY0 77-580): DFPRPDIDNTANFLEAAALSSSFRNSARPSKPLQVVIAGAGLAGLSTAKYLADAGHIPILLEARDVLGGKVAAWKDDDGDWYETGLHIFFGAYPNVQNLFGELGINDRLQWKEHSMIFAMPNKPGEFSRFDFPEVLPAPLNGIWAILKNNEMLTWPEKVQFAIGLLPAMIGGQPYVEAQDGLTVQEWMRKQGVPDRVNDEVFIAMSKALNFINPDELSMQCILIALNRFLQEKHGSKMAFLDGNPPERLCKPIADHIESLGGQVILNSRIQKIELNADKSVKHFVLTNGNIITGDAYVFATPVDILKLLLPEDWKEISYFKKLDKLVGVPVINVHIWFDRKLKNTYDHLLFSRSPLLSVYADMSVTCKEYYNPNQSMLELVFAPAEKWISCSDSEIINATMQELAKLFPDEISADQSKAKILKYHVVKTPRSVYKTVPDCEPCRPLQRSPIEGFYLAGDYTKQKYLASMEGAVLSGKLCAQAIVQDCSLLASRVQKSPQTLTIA

Molecule	R/S (30 min)	IC50 [µM]	R/S
O=C(Nc1ccc(F)cc1F)c1cccnc1Oc1cccc(C(F)(F)F)c1 [Diflufenican]	1	101	
CNC1=C(c2cccc(C(F)(F)F)c2)C(=O)C(c2ccccc2)O1 (centres unmarked) [Flurtamone]	1	300	
CNc1cnn(-c2cccc(C(F)(F)F)c2)c(=O)c1Cl [Norflurazon]		50	
O=C1C(Cl)C(CCl)CN1c1cccc(C(F)(F)F)c1 (centres unmarked) [Fluorochloridone]	1	130	
CCC(Oc1ccc(F)c(C(F)(F)F)c1)C(=O)NCc1ccccc1 (centres unmarked) [Beflubutamid]		72	1
O=C(Nc1ccc(F)cc1)c1cccc(Oc2cccc(C(F)(F)F)c2)n1 [Piconilafen, Picolinafen]		327	
Fluridone	1		
